Read-outs that look alike come from different tables or passages of the source. Starred links: 1 amine or outer side, 2 acyl side, 3 side chain; linkers in the order of their positions; H or OH if unused. Positions of bridges follow the written chain, without caps; N, C: chain ends. Non-standard residues stand in square brackets, D forms with d. Residues, ends and D or L forms follow the SMILES beside them. *: point of attachment. Phe(3-NHCO(CH2)3SO2NH2) = N[C@@H](Cc1cccc(NC(=O)CCCS(N)(=O)=O)c1)C(=O)O; DOTA = O=C(O)CN1CCN(CC(=O)O)CCN(CC(=O)*)CCN(CC(=O)O)CC1; mXylylene = c1cc(C[*:1])cc(C[*:2])c1; X1 = O=C(CN1CCN([*:1])CC1)[*:2]
Tests used:
[1] = GLP extended single-dose i.v. toxicity study in beagle dogs; type: in vivo, dog
Experimental: (§1) The following parameters and endpoints were evaluated: mortality, clinical observations, body weights, food consumption, body temperature, local reactions, ophthalmology, clinical pathology parameters (hematology, coagulation, clinical chemistry, and urinalysis), cardiovascular and respiratory safety pharmacology endpoints along with FOB evaluation, organ weights, and macroscopic and microscopic examinations, and TK parameters. The animals from subset A (3 males and 3 females per group) were sampled for toxicokinetics (TK) at: pre-dose, 5 min, 15 min, 30 min, 1 h, 2 h, 3 h and 6 h. Blood samples were collected in K2EDTA tubes. Plasma was prepared by centrifugation (2500 g for 10 minutes, +4° C.) within 1 hour after collection, and then frozen within 1 hour after centrifugation and stored at −80° C. […] Chromatographic separation was achieved using a Waters Acquity UPLC system with a Waters Acquity HSS T3 C18 2.1×50 mm, 1.8 μm column. Chromatography was conducted at 50° C. at a flow rate of 0.7 mL/min using a mobile phase consisting of A: 1% formic acid in acetonitrile, and B: 1% formic acid in water, according to the following linear gradient: 0 to 0.1 min: 90% B; 0.1 to 4.1 min: from 90% B to 74% B; 4.1 to 4.2 min: from 74% B to 5% B; 4.2 to 4.6 min: 5% B; 4.6 to 4.7 min: from 5% B to 90% B; 4.7-5.1 min; 90% B. Detection was performed using a Sciex AP16600 TOF mass spectrometer. Toxicokinetic parameters were estimated from concentration-time data using Phoenix pharmacokinetic software (version 6.4, Certara L.P.). A non-compartmental approach consistent with the bolus intravenous injection was used for parameter estimation.

[2] = Toxicokinetics in the extended single-dose toxicity study in dogs; type: in vivo, dog; details: for concentration at 5 min: plasma, iv, read-out: C5 min; for concentration at 5 min / AUClast / CL / Vss: mean n = 3; for t1/2: harmonic mean
Experimental: as §1

SK-RC-52 tumor = experiment: Biodistribution of In-111-labeled compounds by SPECT/CT in SK-RC-52 tumor-bearing mice, with or without gelofusine; type: in vivo, mouse
Experimental: (§2) The effect on tumor uptake of prior injection of gelofusine for kidney protection was investigated in mice bearing the SK-RC-52 tumor. Biodistribution was evaluated using in vivo SPECT/CT imaging.
(§3) The study was performed in female NMRI nude mice (approximately 6 weeks of age) from Janvier Labs, France, housed up to 5 mice per cage.
(§4) The column was washed with 2 mL water, and then the final product was eluted from the column in EtOH solution (50%) • The sample was formulated in PBS to the final concentration of 150 MBq/mL and 5 nmol/mL.
(§5) HT-29 cells were cultured in McCoy's 5a Medium Modified (Sigma #M9309). For inoculation of HT-29 cells, cells were harvested, washed twice in PBS and resuspended at 5×10^7 cells/mL in PBS. Cells were kept on ice until inoculation.
(§6) Animals were anaesthetized (isoflurane, 2-4% in ambient air supplemented with 100% O2) prior to tumor inoculation. The tumor cells (100 μL suspension of either SK-RC-52 cells (2×10^6 cells/animal) or HT-29 cells (5×10^6 cells/animal)) were subcutaneously inoculated in the right flank using a 1-mL syringe equipped with a 27G needle. Tumor growth and animal weight were measured twice per week. Tumor size was measured by caliper and the volume was estimated using the following formula: 0.52×(length×width^2). When tumor sizes reached 150-250 mm^3, animals were randomized into groups (n=3) of similar average tumor volume and body weight.
(§7) CT was performed with helical scan, 300 ms exposure, reconstruction resolution of 250 μm. SPECT was performed with multi-pinhole scan and a 30 s frame time. For the quantification of the radioactivity uptake, regions of interests (ROIs) were drawn over the tumor, kidney, liver, and heart (estimate of blood) identified on the images. Uptake was expressed as percent of injected dose per gram tissue (% ID/g).

[3] = as above; type: in vivo, mouse; details: mouse, in vivo
Experimental: as §2, §3, §4, §5, §6, §7

[4] = female beagle dogs, single i.v. bolus 16 μg/kg
[5] = female beagle dogs, single i.v. bolus 80 μg/kg
[6] = female beagle dogs, single i.v. bolus 400 μg/kg
[7] = male beagle dogs, single i.v. bolus 16 μg/kg
[8] = male beagle dogs, single i.v. bolus 80 μg/kg
[9] = male beagle dogs, single i.v. bolus 400 μg/kg

Which results are given for `CC(C)C[C@@H]1NC(=O)[C@H](Cc2cccc(NC(=O)CCCS(N)(=O)=O)c2)NC(=O)[C@H](CC(=O)O)NC(=O)[C@H]2CCCN2C(=O)[C@H](CCC(=O)O)NC(=O)[C@@H](NC(=O)[C@H](CCC(N)=O)NC(=O)CN2CCN(C(=O)CN3CCN(CC(=O)O)CCN(CC(=O)O)CCN(CC(=O)O)CC3)CC2)CSCc2cccc(c2)CSC[C@@H](C(N)=O)NC(=O)[C@H](CO)NC(=O)[C@H](Cc2c[nH]c3ccccc23)NC(=O)[C@H]([C@@H](C)O)NC1=O` [DPI-4452, DOTA-PPAc-Gln-[Cys(3MeBn)-Glu-pro-Asp-Af3(Cpsu)-Leu-Thr-Trp-Ser-Cys]-NH2] ({DOTA}-[X1]QCE[dP]D[Phe(3-NHCO(CH2)3SO2NH2)]LTWSC-NH2; linker 3-12 via mXylylene)?
Human equivalent dose of the dog NOAEL ([1]; considering a 60 kg human): 13.3 mg; Clinical signs or local reactions ([1]; dog, single i.v. 16, 80, 400 μg/kg): no DPI-4452 treatment-related clinical signs or local reactions were observed; Tolerability ([1]; dog, single i.v. bolus up to 400 μg/kg): well tolerated; Exposure difference between male and female dogs ([2]; all dose levels): No appreciable difference; Mean AUCtlast at the NOAEL, females ([2]; dog, 400 μg/kg i.v.): 771 ng·h/mL; Mean AUCtlast at the NOAEL, males ([2]; dog, 400 μg/kg i.v.): 854 ng·h/mL; concentration at 5 min ([2]; dog, 0.08 mg/kg, female beagle dogs, single i.v. bolus 80 μg/kg): 346 ng/mL; concentration at 5 min ([2]; dog, 0.08 mg/kg, male beagle dogs, single i.v. bolus 80 μg/kg): 332 ng/mL; concentration at 5 min ([2]; dog, 0.4 mg/kg, female beagle dogs, single i.v. bolus 400 μg/kg): 1760 ng/mL; concentration at 5 min ([2]; dog, 0.4 mg/kg, male beagle dogs, single i.v. bolus 400 μg/kg): 1840 ng/mL; concentration at 5 min ([2]; dog, […], female beagle dogs, single i.v. bolus 16 μg/kg): 37.7 ng/mL; concentration at 5 min ([2]; dog, […], male beagle dogs, single i.v. bolus 16 μg/kg): 43.5 ng/mL; t1/2 [2, 4]: 14.3 min; AUClast [2, 4]: 12.4 ng·h/mL; CL [2, 4]: 21.2 mL/min/kg; Vss [2, 4]: 0.30 L/kg; t1/2 [2, 5]: 23.2 min; AUClast [2, 5]: 144 ng·h/mL; CL [2, 5]: 9.27 mL/min/kg; Vss [2, 5]: 0.21 L/kg; t1/2 [2, 6]: 21.8 min; CL [2, 6]: 8.63 mL/min/kg; Vss [2, 6]: 0.19 L/kg; t1/2 [2, 7]: 15.5 min; AUClast [2, 7]: 14.0 ng·h/mL; CL [2, 7]: 18.3 mL/min/kg; Vss [2, 7]: 0.26 L/kg; t1/2 [2, 8]: 21.7 min; AUClast [2, 8]: 132 ng·h/mL; CL [2, 8]: 10.1 mL/min/kg; Vss [2, 8]: 0.21 L/kg; t1/2 [2, 9]: 23.7 min; CL [2, 9]: 7.88 mL/min/kg; Vss [2, 9]: 0.19 L/kg; Time to peak uptake in tumor (SK-RC-52 tumor; SK-RC-52): 1 h; % remaining tumor uptake at 24 h p.i. (SK-RC-52 tumor; SK-RC-52, Mean ± SEM): 73.3 ± 0.8%; Blood uptake at 4 h p.i. (SK-RC-52 tumor; SK-RC-52 mice): 0.05 ± 0.01 % ID/g; Kidney uptake at 24 h p.i. (SK-RC-52 tumor; SK-RC-52 mice): 0.95 ± 0.05 % ID/g; Liver uptake at 4 h p.i. (SK-RC-52 tumor; SK-RC-52 mice): 0.18 ± 0.04 % ID/g; tissue uptake ([3]; SK-RC-52, Mean ± SEM, N=3, read-out: Peak Tumor Uptake): 9.42 ± 1.53 %ID/g; tissue uptake ([3]; SK-RC-52 mice, read-out: Peak Kidney uptake): 3.43 ± 0.24 %ID/g

Reference: patent publication US20260284240A1, “RADIOLABELED COMPOUND FOR USE IN A METHOD OF TREATING CARBONIC ANHYDRASE IX POSITIVE DISEASES” (DEBIOPHARM INTERNATIONAL S.A., priority 2023, published 2026)
